Where “and” joins values, the source holds several entries; their conditions need not be identical. Identical values can stand only once.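 Results reflect a 48-hour exposure of cells in 96-well plates to compound at five concentrations. Abbreviation: GI50, concentration required for 50% inhibition of growth. TGI is the concentration that stops growth completely.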

In one assay the test system is OVCAR-4 ovarian. The assay is described as follows: inhibition of tumour cell growth, NCI panel, 48 h.
`O=C(/C=C/c1ccccc1Cl)NC1C=Nc2ccc([N+](=O)[O-])cc2NC1` (stereo not drawn): the TGI was greater than 100 µM.
Still for that read-out and setting: under `CCCO/S(=N\S(=O)(=O)c1ccccc1)c1ccccc1[N+](=O)[O-]` (stereo not drawn) stands greater than 100 µM; under `Cc1ccc(C)c(N=C2NC(=O)C(CC(=O)Nc3ccc(Cl)cc3Cl)S2)c1` (stereo not drawn), greater than 100 µM.
For `O=C1NC(=O)C(c2cccc([N+](=O)[O-])c2)=C1Nc1cc(Cl)c(O)c(Cl)c1`, the GI50 was greater than 25 µM and the TGI is greater than 25 µM.
`COC(=O)[C@@H](C)C[C@H](Cc1ccccc1)NC(=O)c1csc([C@@H](C[C@H](C(C)C)N(C)C(=O)[C@@H](NC(=O)[C@H]2CCCCN2C)C2CCCCC2)OC(C)=O)n1` had a TGI greater than 25 µM.
With `NC(=O)OCCn1cc(-c2nc(-c3c[nH]c4ncccc34)cs2)c2ccccc21`, the GI50 was 1.78 µM and the TGI came to 11.9 µM.
In the same order, the values of `COc1ccc(CCNC(=O)c2ccc(NC3=C(Cl)C(=O)N(Cc4ccccc4)C3=O)cc2)cc1OC` are greater than 100 µM and greater than 100 µM.
Regarding `Cc1nc([N+](=O)[O-])cn1CC(=N)N`, the TGI was greater than 100 µM.
The same measure, in the same setting: the figure for `O=CN1CCN(CC(O)CN2CCCCC2)CC1` (stereo not drawn) is greater than 100 µM; for `O=Cc1ccc2c(c1-c1c(C=O)ccc3c1OCO3)OCO2` it is greater than 100 µM.
The compound `CC(=O)O[C@H]1CCC2[C@@H]3CCC4Nc5[nH]ncc5C[C@]4(C)C3CC[C@@]21C` (stereo partly drawn) registered a TGI greater than 100 µM.

The subject of the next assay is LOX IMVI melanoma. Briefly: inhibition of tumour cell growth, NCI panel, 48 h.
In the case of `CCn1c(=O)c2c(=O)c3c4c(oc3oc2c2ccccc21)C(=O)c1ccccc1C4=O`, the TGI was greater than 100 µM.
Same read-out and setting: under `Cc1nc(-[n+]2nc(-c3ccncc3)nn2-c2ccccc2)sc1C` stands greater than 100 µM.
For `COc1cc2c(c(OC)c1OC)-c1ncc3cc4c(cc3c1C2)OCO4`, the GI50 is 14.3 µM and the TGI stood at 34.1 µM.
In the same order, the values of `CC1=C(C(=O)Nc2ccc(Cl)c(Cl)c2)C(c2cccc(Oc3ccccc3)c2)NC(=O)N1` (stereo not drawn) are 4.33 µM and 13.8 µM.
`CC1COC(C)(C)P(=O)(c2ccccc2)C1` (stereo not drawn) had a TGI greater than 100 µM.
Regarding `COc1ccc(O)c(C(=O)c2ccc(C(=O)N[C@H]3CCCNC[C@@H]3NC(=O)c3ccncc3)cc2)c1F`, the GI50 was 7.38 µM and the TGI was greater than 25 µM.
Taken in the same sequence, the figures for `COc1ccc(-n2c(C)cc(-c3ccccc3)c2C)cc1` were 2.55 µM and 11.9 µM.
`CCOP(=O)(OCC)OC1C=CC2CCC1C2` (stereo not drawn): the TGI is greater than 100 µM.
The same measure, in the same setting: under `CCOc1ccncc1[N+](=O)[O-]` stands greater than 100 µM.
Turning to `O=C(Nc1ccc(F)cc1)c1cc(S(=O)(=O)Nc2nc3ccccc3o2)c(SCc2ccccc2)cc1Cl`, the GI50 is 18 µM and the TGI worked out at 34.2 µM.
For `O=C(/C=C/c1ccccc1Cl)NC1C=Nc2ccc([N+](=O)[O-])cc2NC1` (stereo not drawn), the TGI was greater than 100 µM.
Still for that read-out and setting: under `CCCO/S(=N\S(=O)(=O)c1ccccc1)c1ccccc1[N+](=O)[O-]` (stereo not drawn) stands greater than 100 µM.
In turn, `Cc1ccc(C)c(N=C2NC(=O)C(CC(=O)Nc3ccc(Cl)cc3Cl)S2)c1` (stereo not drawn) came in with a TGI greater than 100 µM.
On to `O=C1NC(=O)C(c2cccc([N+](=O)[O-])c2)=C1Nc1cc(Cl)c(O)c(Cl)c1`, for which the GI50 was 24.3 µM and the TGI is greater than 25 µM.
Turning to `COC(=O)[C@@H](C)C[C@H](Cc1ccccc1)NC(=O)c1csc([C@@H](C[C@H](C(C)C)N(C)C(=O)[C@@H](NC(=O)[C@H]2CCCCN2C)C2CCCCC2)OC(C)=O)n1`, the GI50 was 0.00139 µM and 0.0025 µM; the TGI is 23 µM.
In the case of `NC(=O)OCCn1cc(-c2nc(-c3c[nH]c4ncccc34)cs2)c2ccccc21`, the GI50 is 1.55 µM and the TGI was found to be 4.11 µM.
`Cc1nc([N+](=O)[O-])cn1CC(=N)N` had a TGI greater than 100 µM.
`O=CN1CCN(CC(O)CN2CCCCC2)CC1` (stereo not drawn) registered a TGI greater than 100 µM.
Consider `CC(=O)O[C@H]1CCC2[C@@H]3CCC4Nc5[nH]ncc5C[C@]4(C)C3CC[C@@]21C` (stereo partly drawn), for which the TGI is greater than 100 µM.

The next assay concerns MALME-3M melanoma. Briefly: inhibition of tumour cell growth, NCI panel, 48 h.
As for `CCn1c(=O)c2c(=O)c3c4c(oc3oc2c2ccccc21)C(=O)c1ccccc1C4=O`, the GI50 was greater than 100 µM and the TGI was greater than 100 µM.
The compound `Cc1nc(-[n+]2nc(-c3ccncc3)nn2-c2ccccc2)sc1C` returned a TGI greater than 100 µM.
`CC1COC(C)(C)P(=O)(c2ccccc2)C1` (stereo not drawn): the TGI is greater than 100 µM.
The same measure, in the same setting: the figure for `Cc1ccc(S(=O)(=O)c2ccc(N)cc2)cc1` is greater than 100 µM.
As to `COc1ccc(O)c(C(=O)c2ccc(C(=O)N[C@H]3CCCNC[C@@H]3NC(=O)c3ccncc3)cc2)c1F`, the GI50 is 1.47 µM and the TGI was greater than 25 µM.
In the same order, the values of `COc1ccc(-n2c(C)cc(-c3ccccc3)c2C)cc1` are 1.78 µM and 4.53 µM.
For `CCOP(=O)(OCC)OC1C=CC2CCC1C2` (stereo not drawn), the TGI was greater than 100 µM.
As to `CCOc1ccncc1[N+](=O)[O-]`, the TGI was greater than 100 µM.
As to `COc1c[c]([Hg][O]C(C)=O)c(OC)c(NC(=O)CC(C)=O)[c]1[Hg][O]C(C)=O`, the GI50 was 1.53 µM and the TGI was determined as 3 µM.
Regarding `O=C(/C=C/c1ccccc1Cl)NC1C=Nc2ccc([N+](=O)[O-])cc2NC1` (stereo not drawn), the TGI is greater than 100 µM.
On the same count and under the same terms, the figure for `CCCO/S(=N\S(=O)(=O)c1ccccc1)c1ccccc1[N+](=O)[O-]` (stereo not drawn) is greater than 100 µM.
On the same count and under the same terms, the figure for `Cc1ccc(C)c(N=C2NC(=O)C(CC(=O)Nc3ccc(Cl)cc3Cl)S2)c1` (stereo not drawn) is greater than 100 µM.
For `O=C1NC(=O)C(c2cccc([N+](=O)[O-])c2)=C1Nc1cc(Cl)c(O)c(Cl)c1`, the GI50 is greater than 25 µM and the TGI is greater than 25 µM.
Regarding `Cc1nc([N+](=O)[O-])cn1CC(=N)N`, the TGI is greater than 100 µM.
On the same count and under the same terms, the figure for `O=CN1CCN(CC(O)CN2CCCCC2)CC1` (stereo not drawn) is greater than 100 µM.
`O=Cc1ccc2c(c1-c1c(C=O)ccc3c1OCO3)OCO2`: the TGI was greater than 100 µM.
Still for that read-out and setting: under `CC(=O)O[C@H]1CCC2[C@@H]3CCC4Nc5[nH]ncc5C[C@]4(C)C3CC[C@@]21C` (stereo partly drawn) stands greater than 100 µM.

The test system of the next assay is SK-MEL-2 melanoma. The assay is described as follows: inhibition of tumour cell growth, NCI panel, 48 h.
Regarding `CCn1c(=O)c2c(=O)c3c4c(oc3oc2c2ccccc21)C(=O)c1ccccc1C4=O`, the GI50 is greater than 100 µM and the TGI is greater than 100 µM.
As for `Cc1nc(-[n+]2nc(-c3ccncc3)nn2-c2ccccc2)sc1C`, the TGI was greater than 100 µM.
As to `COc1cc2c(c(OC)c1OC)-c1ncc3cc4c(cc3c1C2)OCO4`, the GI50 is 38.9 µM and the TGI was greater than 100 µM.

The values are drawn from PubChem BioAssay (NCI).
